Assay results published in patent EP4122463A1, “DRUG IN THE FORM OF A COMPLEX OF 3,3'-DIINDOLYLMETHANE WITH Beta-CYCLODEXTRIN” (Kiselev, Vsevolod Ivanovich, priority 2020, dated 2021).

Assays:
[1] = Solubility of 3,3'-diindolylmethane as a function of concentration of various cyclodextrins; format: physicochemical; details: solutions of α-, β- and γ-cyclodextrin, figure 2
Description: Solubility of 3,3'-diindolylmethane was investigated as a function of concentration of various cyclodextrins. The following were used in the experiments: • α-cyclodextrin (αCD); • β-cyclodextrin (βCD); • γ-cyclodextrin (γCD).

[2] = Concentration of 3,3'-diindolylmethane in the blood plasma of patients; format: in vivo; details: DIM dosage 100 mg
Description: (§1) In clinical studies, effectiveness of a water-soluble complex based on cyclodextrins and crystalline 3,3'-diindolylmethane in equal doses was compared. […]

[3] = Clinical comparison of effectiveness of water-soluble complexes and crystalline DIM in equal doses; format: in vivo; details: all studied groups of patients
Description: as §1

[4] = cited from earlier work

The concentration of DIM in plasma [2]: less than 30 ng / ml
Compound: c1ccc2c(Cc3c[nH]c4ccccc34)c[nH]c2c1 [DIM crystalline, 3,3'-diindolylmethane]
maximum solubility of 3,3'-diindolylmethane [1]: maximum solubility of 3,3'-diindolylmethane is achieved in combination with β-cyclodextrin (βCD)
effectiveness (dynamics in patients) [3]: absence of such
Solubility of 3,3'-diindolylmethane in DMSO [4]: 18-20%
